These results are taken from PMC4099323, “Inhibition of Catalase by Tea Catechins in Free and Cellular State: A Biophysical Approach” (PLoS ONE, 2014).

Test [1] concerns the target T1, Catalase (from bovine liver) (Bos taurus, UniProt P00432).
T1 construct: Catalase (from bovine liver); purchased Sigma-Aldrich, St. Louis, MO, USA; host or cells: bovine liver
T1 sequence (P00432 2-527 limits assumed): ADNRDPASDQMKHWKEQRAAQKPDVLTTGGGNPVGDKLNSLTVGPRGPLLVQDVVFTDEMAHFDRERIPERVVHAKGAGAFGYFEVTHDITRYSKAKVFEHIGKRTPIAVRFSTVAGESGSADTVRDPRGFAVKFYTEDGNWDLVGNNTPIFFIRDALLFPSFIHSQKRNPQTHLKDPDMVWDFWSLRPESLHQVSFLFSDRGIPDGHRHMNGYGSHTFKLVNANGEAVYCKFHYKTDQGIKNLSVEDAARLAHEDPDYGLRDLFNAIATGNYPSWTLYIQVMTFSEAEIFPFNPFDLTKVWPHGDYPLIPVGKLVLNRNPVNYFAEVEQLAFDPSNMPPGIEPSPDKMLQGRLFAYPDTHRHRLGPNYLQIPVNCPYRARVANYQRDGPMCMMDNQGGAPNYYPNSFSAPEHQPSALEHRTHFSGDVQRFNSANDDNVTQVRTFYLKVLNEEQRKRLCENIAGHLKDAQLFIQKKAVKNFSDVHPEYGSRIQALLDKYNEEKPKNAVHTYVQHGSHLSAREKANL
As to the kind of experiment: Isothermal titration calorimetry of catechins binding to catalase. Conditions: 25°C. Here is the method:
The energetics of the binding of catechins to catalase was studied by ITC using a MicroCal ITC200, (Northampton, MA, USA). All solutions were degassed under vacuum (140 mbar, 10 min) on the MicroCal’s Thermovac unit to eliminate air bubble formation inside the calorimeter cell. Briefly, the calorimeter syringe was filled with a concentrated solution of catechins (10 µM each). Successive injections of this solution into 1 µM solution of catalase in the calorimeter cell were effected from the rotating syringe with constant stirring of the solution. The titration and analysis were performed through Origin 7 software provided with the unit.
ITC directly measures the heat released during a chemical reaction. ITC can reveal the stoichiometry, enthalpy free energy, and entropy changes that occur over the course of a reaction, [46]. Data obtained from the titration are presented by the series of peaks corresponding to each injection. Usually, this representation is transformed into the apparent heat change between two injections as a function of the titrant ratio by means of integration of power differential with regard to time. ITC has been used mainly to quantify interactions in various biochemical systems [47]–[49]. ITC has been used in the present study to determine binding affinity and other thermodynamic parameters of catechins-catalase interaction. Representative isothermal calorimetric heat profiles for the binding of catechins-catalase interaction, at physiological pH and 25°C are shown in Figure 4 (A–D). The data were corrected for the heat of dilution of catechins, which was determined in a separate set of experiments under identical conditions. The titration and analysis were performed using one-site binding model through Origin 7 software provided with the unit. From Figure 4 it is observed that the titration of catalase with all the four catechins yield negative heat deflections. EC, EGC, ECG, and EGCG bind to catalase with binding constants 2.13×10^5, 1.92×10^5, 6.36×10^5, and 8.19×10^5 M^−1, respectively, as determined by the following equation: ΔG = −RT ln K, where ΔG is the free energy, R and T are the gas constant and temperature, respectively, K is the binding constant.
For orientation: Isothermal titration calorimetry measures the heat released or taken up as one component is titrated into another.

Test [2] concerns the target T2, cellular catalase in K562 cells (Homo sapiens, UniProt P04040).
T2 construct: endogenous in cells; host or cells: K562 cells
T2 sequence (P04040 2-527 limits assumed): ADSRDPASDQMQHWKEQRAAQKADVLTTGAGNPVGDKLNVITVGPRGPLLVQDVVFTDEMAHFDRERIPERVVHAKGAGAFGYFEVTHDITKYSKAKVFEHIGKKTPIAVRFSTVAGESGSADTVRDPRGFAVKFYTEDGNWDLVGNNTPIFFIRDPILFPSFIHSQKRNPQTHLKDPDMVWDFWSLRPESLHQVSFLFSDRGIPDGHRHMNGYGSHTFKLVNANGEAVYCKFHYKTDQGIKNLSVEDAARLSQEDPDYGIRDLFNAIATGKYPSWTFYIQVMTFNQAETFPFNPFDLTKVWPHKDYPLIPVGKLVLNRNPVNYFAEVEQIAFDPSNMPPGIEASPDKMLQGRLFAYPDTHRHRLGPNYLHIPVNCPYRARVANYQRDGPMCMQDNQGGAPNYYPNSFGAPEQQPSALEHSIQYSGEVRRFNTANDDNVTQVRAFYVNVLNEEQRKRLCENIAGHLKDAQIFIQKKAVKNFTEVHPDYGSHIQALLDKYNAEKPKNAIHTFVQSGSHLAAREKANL
As to the kind of experiment: Inhibition of cellular catalase activity in K562 cells. It is filed as cell-based. Particulars: 50 µM each, 2 hours at 37°C. As for the experimental part:
Estimation of cellular catalase activity was carried out by suspending K562 cells (5×10^4 for each sample) in 1 ml of PBS along with four catechins and 3-AT (50 µM each) separately and incubated at 37°C for 2 hours. Later, each sample was centrifuged and washed twice with PBS. The final pellet was suspended in 200 µl lysis buffer and kept on ice for 30 min. The lysate was then used in the same protocol used for evaluation of pure catalase activity.
On addition of catechins, a decrease in rate of H2O2 degradation i.e. a decrease in pure catalase activity was observed which is represented in Figure 6A. Catechins with galloyl moiety (ECG and EGCG) reduced catalase activity more than its non-gallated counterparts i.e. EGC and EC. However, Inhibition by EGCG is the closest to inhibition by known catalase inhibitor 3-AT.

For a further test, the system named is K562 cells. As to the kind of experiment: Intracellular ROS by DCFDA fluorescent probe. It is filed as cell-based, human. Particulars: 24 h, basal 255.09±3.69 AU. Here is the method:
Intracellular ROS were estimated by using the DCFDA fluorescent probe. Intracellular H2O2 and other peroxides can oxidize DCFDA to highly fluorescent compound dichlorofluorescein (DCF). K562 cells were incubated at 37°C in absence and presence of EGCG (12.5 – 100 µM) for 24 h. Cells were again incubated with 10 µM DCFDA at 37°C for an additional 30 min, and then washed twice with PBS. Finally the fluorescence intensity of DCF was measured with an excitation wavelength of 485 nm and emission wavelength of 530 nm.

Setting [3] is: ITC, directly extracted from the experiment.

Take `O=C(O[C@@H]1Cc2c(O)cc(O)cc2O[C@@H]1c1cc(O)c(O)c(O)c1)c1cc(O)c(O)c(O)c1` [EGCG, (−)-epigallocatechin gallate]: in test [1] (ITC, calculated from the average values of ΔH), the ΔG was -7.95 kcal/mol. The ΔH in test [1] (setting [3]) was -450 ± 22.5 kcal/mol. In test [1] (setting [3]), the ΔS is listed as −1.48×10^3 cal/mol/K. Moreover, the Kd in test [1] (one-site binding model, from ΔG = −RT ln K, read-out: binding constant with catalase (ITC) (converted)) is 1220 nM. Also, in test [2], the “inhibition of cellular catalase activity” value is given as “inhibited cellular catalase in K562 cancer cells”. Moreover, the “intracellular ROS” value in the test with K562 cells (12.5 µM) came out at 298.01±4.89 AU; in the test with K562 cells (25 µM), 320.83±4.03 AU; with K562 cells (50 µM), 354.07±4.66 AU; in the test on K562 cells (100 µM), 442.90±7.43 AU.
